ChEMBL document CHEMBL5500372, “Novel natural osthole-inspired amphiphiles as membrane targeting antibacterials against methicillin-resistant Staphylococcus aureus (MRSA)” (Eur J Med Chem, 2024)
Activity calls are given as the source filed them. No cut-off for these calls is given here.

Assays:
[1] = tested on: Cell membrane; assay: Disruption of cell membrane in methicillin-resistant Staphylococcus aureus clinical isolate 16 assessed as increase in blue fluorescence at 8 times MIC measured after 4 hrs by DAPI and PI staining based laser confocal microscopy based analysis; type: cell membranes
[2] = tested on: Cell membrane; assay: Induction of cell membrane disruption in methicillin-resistant Staphylococcus aureus clinical isolate 16 assessed as dead cells (Q1 region) at 16 ug/ml measured after 2 hrs by SYTO-9 and PI staining based flow cytometry analysis (reference value: 0%); type: cell membranes; conditions: dose 16.0 µg/ml
[3] = tested on: Cell membrane; assay: Induction of cell membrane disruption in methicillin-resistant Staphylococcus aureus clinical isolate 16 assessed as dead cells (Q1 region) at 8 ug/ml measured after 2 hrs by SYTO-9 and PI staining based flow cytometry analysis (reference value: 0%); type: cell membranes; conditions: dose 8.0 µg/ml
[4] = Toxicity in female KM mouse skin abscess model infected with methicillin-resistant Staphylococcus aureus clinical isolate 16 assessed as histological abnormalities in liver at 5 to 10 mg/kg, sc measured after 24 hrs by H and E staining based analysis; type: organism-based; conditions: in vivo, dose 5-10 mg/kg
[5] = Cytotoxicity in human L02 cells assessed as survival rate at 16 ug/ml measured after 24 hrs by CCK-8 method relative to control; type: toxicity, cell-based; conditions: at 16 µg/mL, read-out: Survival
[6] = Toxicity in female KM mouse assessed as effect on histopathological abnormalities in lungs at 20 mg/kg, sc measured after 24 hrs by H and E staining based analysis; type: organism-based; conditions: in vivo
[7] = tested on: Cell membrane; assay: Disruption of cell membrane in methicillin-resistant Staphylococcus aureus clinical isolate 16 assessed as increase in DNA leakage incubated for 4 hrs by microspectrophotometric analysis; type: cell membranes; conditions: dose <= 8.0 µg/ml
[8] = Toxicity in female KM mouse assessed as effect on histopathological abnormalities in liver at 20 mg/kg, sc measured after 24 hrs by H and E staining based analysis; type: organism-based; conditions: in vivo
[9] = tested on: Cell membrane; assay: Induction of cell membrane disruption in methicillin-resistant Staphylococcus aureus clinical isolate 16 assessed as intact cells (Q3 region) at 64 ug/ml measured after 2 hrs by SYTO-9 and PI staining based flow cytometry analysis (reference value: 96.0%); type: cell membranes; conditions: dose 64.0 µg/ml
[10] = Toxicity in female KM mouse skin abscess model infected with methicillin-resistant Staphylococcus aureus clinical isolate 16 assessed as histological abnormalities in heart at 5 to 10 mg/kg, sc measured after 24 hrs by H and E staining based analysis; type: organism-based; conditions: in vivo, dose 5-10 mg/kg
[11] = tested on: Staphylococcus aureus; assay: Antibacterial activity against methicillin-resistant Staphylococcus aureus clinical isolate 17 measured after 18 hrs by CLSI based broth microdilution method; type: functional
[12] = Toxicity in female KM mouse assessed as effect on lung at 20 mg/kg, sc measured after 24 hrs by H and E staining based analysis; type: organism-based; conditions: in vivo
[13] = Toxicity in female KM mouse assessed as effect on CREA at upto 20 mg/kg, sc measured after 24 hrs by biochemical test; type: organism-based; conditions: in vivo
[14] = Toxicity in female KM mouse assessed as effect on hematocrit in blood at upto 20 mg/kg, sc measured after 24 hrs; type: organism-based; conditions: in vivo
[15] = tested on: Cell membrane; assay: Induction of cell membrane disruption in methicillin-resistant Staphylococcus aureus clinical isolate 16 assessed as intact cells (Q3 region) at 16 ug/ml measured after 2 hrs by SYTO-9 and PI staining based flow cytometry analysis (reference value: 96.0%); type: cell membranes; conditions: dose 16.0 µg/ml
[16] = Toxicity in female KM mouse assessed as effect on platelet count at upto 20 mg/kg, sc measured after 24 hrs; type: organism-based; conditions: in vivo
[17] = tested on: L02; assay: Cytotoxicity in human L02 cells measured after 24 hrs by CCK-8 method; type: toxicity, cell-based; conditions: l02, 24 h
[18] = Toxicity in female KM mouse assessed as effect on histopathological abnormalities in kidney at 20 mg/kg, sc measured after 24 hrs by H and E staining based analysis; type: organism-based; conditions: in vivo
[19] = tested on: Staphylococcus aureus; assay: Antibacterial activity against methicillin-resistant Staphylococcus aureus clinical isolate 16 infected in female KM mouse skin abscess model assessed as reduction in inflammatory cells at 5 to 10 mg/kg, sc measured after 24 hrs by H and E staining based analysis; type: functional, organism-based; conditions: dose 5-10 mg/kg
[20] = Toxicity in female KM mouse assessed as effect on back skin at 20 mg/kg, sc measured after 24 hrs by H and E staining based analysis; type: organism-based; conditions: in vivo
[21] = tested on: Staphylococcus aureus; assay: Antibacterial activity against methicillin-resistant Staphylococcus aureus clinical isolate 14 measured after 18 hrs by CLSI based broth microdilution method; type: functional
[22] = tested on: Staphylococcus aureus; assay: Antibacterial activity against methicillin-resistant Staphylococcus aureus clinical isolate 16 infected in female KM mouse skin abscess model assessed as effect on skin abscess at 10 mg/kg, sc measured after 24 hrs; type: functional, organism-based
[23] = Toxicity in female KM mouse assessed as survival at 80 mg/kg, sc measured after 24 hrs; type: organism-based; conditions: in vivo
[24] = tested on: Cell membrane; assay: Disruption of cell membrane in methicillin-resistant Staphylococcus aureus clinical isolate 16 assessed as appearance of uneven surface at 16 ug/ml measured after 4 hrs by SEM analysis; type: cell membranes; conditions: dose 16.0 µg/ml
[25] = tested on: Cell membrane; assay: Induction of cytoplasmic membrane permeabilization in methicillin-resistant Staphylococcus aureus clinical isolate 16 assessed as fold increase in fluorescence intensity at 32 time MIC measured after 35 mins by SYTOX green dye based fluorescence analysis
[26] = tested on: Cell membrane; assay: Disruption of cell membrane in methicillin-resistant Staphylococcus aureus clinical isolate 16 assessed as increase in intracellular ROS level incubated for 50 mins by DCFH-DA staining based fluorescence assay; type: cell membranes
[27] = Toxicity in female KM mouse assessed as adverse effect on back skin at 5 to 20 mg/kg, sc measured after 24 hrs; type: organism-based; conditions: in vivo, dose 5-20 mg/kg
[28] = Toxicity in female KM mouse assessed as effect on white blood cell at upto 20 mg/kg, sc measured after 24 hrs; type: organism-based; conditions: in vivo
[29] = tested on: Cell membrane; assay: Disruption of cell membrane in methicillin-resistant Staphylococcus aureus clinical isolate 16 assessed as fold increase in intracellular ROS level at 64 ug/ml incubated for 50 mins by DCFH-DA staining based fluorescence assay; type: cell membranes; conditions: dose 64.0 µg/ml
[30] = tested on: Staphylococcus aureus; assay: Antibacterial activity against methicillin-resistant Staphylococcus aureus clinical isolate 16 measured after 18 hrs in presence of peptidoglycan by checkerboard broth dilution method; type: functional, organism-based
[31] = tested on: Cell membrane; assay: Induction of cytoplasmic membrane depolarization in methicillin-resistant Staphylococcus aureus clinical isolate 16 assessed as increase in fluorescence intensity at 8 to 32 time MIC measured for 10 mins by DiSC3-5 dye based fluorescence method
[32] = tested on: Staphylococcus aureus; assay: Antibacterial activity against methicillin-resistant Staphylococcus aureus clinical isolate 16 infected in female KM mouse skin abscess model assessed as healthy skin on back at 10 mg/kg, sc measured after 24 hrs; type: functional, organism-based
[33] = Toxicity in female KM mouse assessed as effect on histopathological abnormalities in heart at 20 mg/kg, sc measured after 24 hrs by H and E staining based analysis; type: organism-based; conditions: in vivo
[34] = tested on: Staphylococcus aureus; assay: Antibacterial activity against methicillin-resistant Staphylococcus aureus clinical isolate 16 infected in female KM mouse skin abscess model assessed as reduction in bacterial load at 5 mg/kg, sc measured after 24 hrs relative to control; type: functional; parameters: scale not given: the % may be the effect or the level left
[35] = tested on: Cell membrane; assay: Induction of cell membrane disruption in methicillin-resistant Staphylococcus aureus clinical isolate 16 assessed as intact cells (Q3 region) at 8 ug/ml measured after 2 hrs by SYTO-9 and PI staining based flow cytometry analysis (reference value: 96.0%); type: cell membranes; conditions: dose 8.0 µg/ml

CCCCCCNC(=O)C[N+](C)(C)CCCCCOc1ccc2ccc(=O)oc2c1CC=C(C)C.[Br-]
Activity [1]: Active | Activity [2]: 0.68% | Activity [3]: 0.34% | Activity [4]: Non-Toxic | viability at 24 h, 16 ug/ml [5]: 60% | Activity [6]: Non-Toxic | Activity [7]: Dose-Dependent Effect | Activity [8]: Non-Toxic | Activity [9]: 0% | Activity [10]: Non-Toxic | MIC [11]: 1 µg/mL | Activity [12]: Non-Toxic | Activity [13]: Non-Toxic | Activity [14]: Non-Toxic | Activity [15]: 1.1% | Activity [16]: Non-Toxic | Activity [17]: Non-Toxic | Activity [18]: Non-Toxic | Activity [19]: Active | Activity [20]: Non-Toxic | MIC [21]: 1 µg/mL | Activity [22]: inactive | Activity [23]: Non-Toxic | Activity [24]: Active | fold change (FC) [25]: 50 | Activity [26]: Dose-Dependent Effect | Activity [27]: Non-Toxic | Activity [28]: Non-Toxic | fold change (FC) [29]: 7 | Activity [30]: Active | Activity [31]: Active | Activity [32]: Active | Activity [33]: Non-Toxic | Activity [34]: 99.86% | Activity [35]: 45.3%
